Assay results: ChEMBL document CHEMBL3046898, “Synthesis and characterization of flurbiprofen hydrazide derivatives as potential anti-HCV, anticancer and antimicrobial agents” (2013)
Active and inactive are the calls of the source. The calls are words filed in the database; no cut-off is given here.

Tests used:
[1] = system: Schwanniomyces occidentalis; assay: Antifungal activity against Schwanniomyces occidentalis at 10 mg/ml after 48 hrs by disc diffusion method; type: functional, organism-based
Staphylococcus cohnii [2] = assay: Antibacterial activity against Staphylococcus cohnii at 6.25 to 200 ug/ml after 24 hrs by microwell dilution assay; type: functional, organism-based
Candida parapsilosis = assay: Antifungal activity against Candida parapsilosis at 10 mg/ml after 48 hrs by disc diffusion method; type: functional, organism-based
Salmonella paratyphi [3] = assay: Antibacterial activity against Salmonella paratyphi at 6.25 to 200 ug/ml after 24 hrs by microwell dilution method; type: functional, organism-based; conditions: Salmonella enterica subsp. enterica serovar Paratyphi A
Micrococcus lylae [4] = assay: Antibacterial activity against Micrococcus lylae at 10 mg/ml after 24 hrs by disc diffusion method; type: functional, organism-based
Escherichia coli [5] = assay: Antibacterial activity against Escherichia coli at 10 mg/ml after 24 hrs by disc diffusion method; type: functional, organism-based
Micrococcus lylae [6] = assay: Antibacterial activity against Micrococcus lylae at 6.25 to 200 ug/ml after 24 hrs by microwell dilution method; type: functional, organism-based
Aspergillus = assay: Antifungal activity against Aspergillus at 10 mg/ml after 72 hrs by disc diffusion method; type: functional, organism-based
Pichia membranifaciens = assay: Antifungal activity against Pichia membranifaciens at 10 mg/ml after 48 hrs by disc diffusion method; type: functional, organism-based
Pseudomonas aeruginosa [7] = assay: Antibacterial activity against Pseudomonas aeruginosa at 6.25 to 200 ug/ml after 24 hrs by microwell dilution method; type: functional, organism-based
Candida tropicalis = assay: Antifungal activity against Candida tropicalis at 10 mg/ml after 48 hrs by disc diffusion method; type: functional, organism-based
Photorhabdus luminescens [8] = assay: Antibacterial activity against Photorhabdus luminescens at 10 mg/ml after 24 hrs by disc diffusion method; type: functional, organism-based
Escherichia coli [9] = assay: Antibacterial activity against Escherichia coli at 6.25 to 200 ug/ml after 24 hrs by microwell dilution method; type: functional, organism-based
Staphylococcus aureus [10] = assay: Antibacterial activity against Staphylococcus aureus at 6.25 to 200 ug/ml after 24 hrs by microwell dilution assay; type: functional, organism-based
Proteus vulgaris [11] = assay: Antibacterial activity against Proteus vulgaris at 10 mg/ml after 24 hrs by disc diffusion method; type: functional, organism-based
Micrococcus luteus [12] = assay: Antibacterial activity against Micrococcus luteus at 6.25 to 200 ug/ml after 24 hrs by microwell dilution method; type: functional, organism-based
Kluyveromyces marxianus = assay: Antifungal activity against Kluyveromyces marxianus at 10 mg/ml after 48 hrs by disc diffusion method; type: functional, organism-based
Hepacivirus hominis = assay: Inhibition of HCV N-terminal His-tagged NS5B RNA dependent RNA polymerase expressed in Escherichia coli DH5alpha using poly rA/U12 as primer at 200 uM after 60 mins by liquid scintillation counting
Photorhabdus luminescens [13] = assay: Antibacterial activity against Photorhabdus luminescens at 6.25 to 200 ug/ml after 24 hrs by microwell dilution method; type: functional, organism-based
Proteus vulgaris [14] = assay: Antibacterial activity against Proteus vulgaris at 6.25 to 200 ug/ml after 24 hrs by microwell dilution method; type: functional, organism-based
[15] = system: Acinetobacter radioresistens; assay: Antibacterial activity against Acinetobacter radioresistens at 10 mg/ml after 24 hrs by disc diffusion method; type: functional, organism-based
Micrococcus luteus [16] = assay: Antibacterial activity against Micrococcus luteus at 10 mg/ml after 24 hrs by disc diffusion method; type: functional, organism-based
Pseudomonas aeruginosa [17] = assay: Antibacterial activity against Pseudomonas aeruginosa at 10 mg/ml after 24 hrs by disc diffusion method; type: functional, organism-based
Staphylococcus cohnii [18] = assay: Antibacterial activity against Staphylococcus cohnii at 10 mg/ml after 24 hrs by disc diffusion method; type: functional
[19] = system: Acinetobacter radioresistens; assay: Antibacterial activity against Acinetobacter radioresistens at 6.25 to 200 ug/ml after 24 hrs by microwell dilution method; type: functional, organism-based
Klebsiella aerogenes [20] = assay: Antibacterial activity against Enterobacter aerogenes at 10 mg/ml after 24 hrs by disc diffusion method; type: functional, organism-based
Nakaseomyces glabratus = assay: Antifungal activity against Candida glabrata at 10 mg/ml after 48 hrs by disc diffusion method; type: functional, organism-based
Candida albicans = assay: Antifungal activity against Candida albicans at 10 mg/ml after 48 hrs by disc diffusion method; type: functional, organism-based
Salmonella paratyphi [21] = assay: Antibacterial activity against Salmonella paratyphi at 10 mg/ml after 24 hrs by disc diffusion method; type: functional, organism-based; conditions: Salmonella enterica subsp. enterica serovar Paratyphi A
Staphylococcus aureus [22] = assay: Antibacterial activity against Staphylococcus aureus at 10 mg/ml after 24 hrs by disc diffusion method; type: functional
Klebsiella aerogenes [23] = assay: Antibacterial activity against Enterobacter aerogenes at 6.25 to 200 ug/ml after 24 hrs by microwell dilution method; type: functional, organism-based

Row | Compound | Activity [1] | Activity (Staphylococcus cohnii [2]) | Activity (Candida parapsilosis) | Activity (Salmonella paratyphi [3]) | Activity (Micrococcus lylae [4]) | Activity (Escherichia coli [5]) | Activity (Micrococcus lylae [6]) | Activity (Aspergillus) | Activity (Pichia membranifaciens) | Activity (Pseudomonas aeruginosa [7]) | Activity (Candida tropicalis) | Activity (Photorhabdus luminescens [8]) | Activity (Escherichia coli [9]) | Activity (Staphylococcus aureus [10]) | Activity (Proteus vulgaris [11]) | Activity (Micrococcus luteus [12]) | Activity (Kluyveromyces marxianus) | inhibition (Hepacivirus hominis) | Activity (Photorhabdus luminescens [13]) | Activity (Proteus vulgaris [14]) | also measured
1 | CC(C(=O)N/N=C1\SCC(=O)N1Cc1ccccc1)c1ccc(-c2ccccc2)c(F)c1 (stereo not given) | inactive | inactive | inactive | inactive | inactive | inactive | inactive | inactive | inactive | inactive | inactive | inactive | inactive | inactive | inactive | inactive | inactive | 8% | inactive | inactive | Activity [15]: inactive; Activity (Micrococcus luteus [16]): inactive; Activity (Pseudomonas aeruginosa [17]): inactive; Activity (Staphylococcus cohnii [18]): inactive; Activity [19]: inactive; Activity (Klebsiella aerogenes [20]): inactive; Activity (Nakaseomyces glabratus): inactive; Activity (Candida albicans): inactive; Activity (Salmonella paratyphi [21]): inactive; Activity (Staphylococcus aureus [22]): inactive; Activity (Klebsiella aerogenes [23]): inactive
2 | CC(C(=O)N/N=C/c1ccc(F)cc1)c1ccc(-c2ccccc2)c(F)c1 (stereo not given) | inactive | inactive | inactive | inactive | inactive | inactive | inactive | inactive | inactive | inactive | inactive | inactive | inactive | inactive | inactive | inactive | inactive | 8% | inactive | inactive | Activity [15]: inactive; Activity (Micrococcus luteus [16]): inactive; Activity (Pseudomonas aeruginosa [17]): inactive; Activity (Staphylococcus cohnii [18]): inactive; Activity [19]: inactive; Activity (Klebsiella aerogenes [20]): inactive; Activity (Nakaseomyces glabratus): inactive; Activity (Candida albicans): inactive; Activity (Salmonella paratyphi [21]): inactive; Activity (Staphylococcus aureus [22]): inactive; Activity (Klebsiella aerogenes [23]): inactive
3 | C=CCNC(=S)NNC(=O)C(C)c1ccc(-c2ccccc2)c(F)c1 (stereo not given) | inactive | inactive | inactive | inactive | inactive | inactive | inactive | inactive | inactive | inactive | inactive | inactive | inactive | inactive | inactive | inactive | inactive | 8% | inactive | inactive | Activity [15]: inactive; Activity (Micrococcus luteus [16]): inactive; Activity (Pseudomonas aeruginosa [17]): inactive; Activity (Staphylococcus cohnii [18]): inactive; Activity [19]: inactive; Activity (Klebsiella aerogenes [20]): inactive; Activity (Nakaseomyces glabratus): inactive; Activity (Candida albicans): inactive; Activity (Salmonella paratyphi [21]): inactive; Activity (Staphylococcus aureus [22]): inactive; Activity (Klebsiella aerogenes [23]): inactive
4 | CC(C(=O)N/N=C/c1ccc([N+](=O)[O-])o1)c1ccc(-c2ccccc2)c(F)c1 (stereo not given) | inactive | inactive | inactive | inactive | inactive | inactive | inactive | inactive | inactive | inactive | inactive | inactive | inactive | inactive | inactive | inactive | inactive | 8% | inactive | inactive | Activity [15]: inactive; Activity (Micrococcus luteus [16]): inactive; Activity (Pseudomonas aeruginosa [17]): inactive; Activity (Staphylococcus cohnii [18]): inactive; Activity [19]: inactive; Activity (Klebsiella aerogenes [20]): inactive; Activity (Nakaseomyces glabratus): inactive; Activity (Candida albicans): inactive; Activity (Salmonella paratyphi [21]): inactive; Activity (Staphylococcus aureus [22]): inactive; Activity (Klebsiella aerogenes [23]): inactive
5 | CC(C(=O)NNC(=S)NC1CCCCC1)c1ccc(-c2ccccc2)c(F)c1 (stereo not given) | inactive | inactive | inactive | inactive | inactive | inactive | inactive | inactive | inactive | inactive | inactive | inactive | inactive | inactive | inactive | inactive | inactive | 8% | inactive | inactive | Activity [15]: inactive; Activity (Micrococcus luteus [16]): inactive; Activity (Pseudomonas aeruginosa [17]): inactive; Activity (Staphylococcus cohnii [18]): inactive; Activity [19]: inactive; Activity (Klebsiella aerogenes [20]): inactive; Activity (Nakaseomyces glabratus): inactive; Activity (Candida albicans): inactive; Activity (Salmonella paratyphi [21]): inactive; Activity (Staphylococcus aureus [22]): inactive; Activity (Klebsiella aerogenes [23]): inactive
